For experiment [1], the target named is T1, geranyl diphosphate C-methyltransferase (GPPMT) (Streptomyces coelicolor, UniProt Q9F1Y5). Briefly: radiometric methyl transfer, pentane extraction, scintillation counting. It counts as biochemical. As to conditions: 10 mM MgCl2, pH 7.0, 30 °C.
In experiment [2] the target is T1, geranyl diphosphate C-methyltransferase (GPPMT). Briefly: X-ray crystal structure, […] Å. It counts as binding. As to conditions: with SAH and Mg2+; monomers A, D, H, J only, partial occupancy.
For experiment [3] the target is unchanged. Description: X-ray crystal structure, […] Å. It counts as binding. As to conditions: with SAH and Mg2+; isoprenoid substrate site.

Each structure is given as a SMILES string.

This note sets out measurements from paper PMC3323675 (Biochemistry, 2012).

T1 sequence (Q9F1Y5 whole entry): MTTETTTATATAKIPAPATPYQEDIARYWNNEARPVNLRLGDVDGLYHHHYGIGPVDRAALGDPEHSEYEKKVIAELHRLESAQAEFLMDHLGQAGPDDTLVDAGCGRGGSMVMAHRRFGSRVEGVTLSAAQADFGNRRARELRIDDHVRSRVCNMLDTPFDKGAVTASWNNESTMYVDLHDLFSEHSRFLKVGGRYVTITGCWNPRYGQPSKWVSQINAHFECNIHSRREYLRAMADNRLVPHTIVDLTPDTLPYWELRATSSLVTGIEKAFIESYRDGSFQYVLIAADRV

As for `C[S+](CC[C@H](N)C(=O)O)C[C@H]1O[C@@H](n2cnc3c(N)ncnc32)[C@H](O)[C@@H]1O` (stereo partly drawn) [SAM, S-adenosyl-L-methionine], the KM result in experiment [1] (60 µM GPP, labelled compound) is “Kinetic parameters (Vmax and KM) were obtained for GPP and SAM”.

For the compound `CC(C)=CCC/C(C)=C/COP(=O)(O)OP(=O)(O)O` [GPP, geranyl diphosphate], the KM result in experiment [1] (60 µM SAM) is “Kinetic parameters (Vmax and KM) were obtained for GPP and SAM”. Moreover, in experiment [2], the “X-ray crystal structure, 2.05 Å” value is “sufficient electron density to model GPP is observed only in monomers A, D, H, and J”.

Turning to `CC(C)=CCC/C(C)=C/CSP(=O)(O)OP(=O)(O)O` [GSPP, geranyl-S-thiolodiphosphate], the “X-ray crystal structure, 1.82 Å” value in experiment [3] is on record as “GSPP is bound with full occupancy in all monomers”.
